According to patent US20040067565A1, “Selective functionalization of hydrocarbons with isolated oxygenases and mediator based regeneration” (priority 2002, published 2004):
Like-named read-outs stand apart in the source and are kept apart here. Marks after values point to notes of the source that are not given here.

Experiments:
[1] = biological target: T1, monooxygenase component of styrene monooxygenase (StyA) (Pseudomonas sp, UniProt O50214); test: [Cp*Rh(bpy)(H2O)]2+ driven, StyA-catalyzed epoxidation / sulfoxidation; type: biochemical; settings: substrate 2 mM, reaction time 15 min, 37 °C, 0.2 mM [Cp*Rh(bpy)(H2O)]2+, 1.47 μM StyA; for Epoxides concentration: 20 μM FAD, Positive = no standard substances available yet
Experimental: In a typical experimental setup 1 ml total volume was placed in an Eppendorf cup in a Thermomixer. The temperature was set to 37° C. and the reaction mixture was shaken thoroughly to ensure O2 intake.
Product formation was followed by reversed phase HPLC. The HPLC system (Merck) consisted of a D-7000 controller, L-7200 autosampler, L-7400 UV detector, L-7100 liquid chromatography pump and was fitted with a CC250/4 Nucleosil 100-5 C18 HD column. Samples were eluted under isocratic conditions using 60% acetonitrile and 40% water at a flow rate of 1 ml×min^−1. The elution pattern was monitored at 210 nm.
0.2 mM [Cp*Rh(bpy)(H2O)]^2+, 0.05 mM FAD, 0.005 mM FMN, 2 mM styrene, 280 U catalase, and 1.16 μM StyA in 50 mM potassium phosphate buffer with 150 mM sodium formate were incubated at 37° C. and agitation at 1500 rpm. At intervals, reactions were stopped by addition of one equivalent volume of cold acetonitrile. After centrifugation (15 min at 4° C. and 23000×g the upper phase was analyzed by reverse phase HPLC. Concentrations were corrected according to the phase ratio after centrifugation. Results from this experiment are given in FIG. 10 and Table 3.
0.2 mM [Cp*Rh(bpy)(H2O)]^2+, 0.02 mM FAD, 2 mM substrate, 200 U catalase, and 1.47 μM StyA in 50 mM potassium phosphate buffer with 150 mM sodium formate were incubated at 37° C. and agitation at 1500 rpm.
Styrene oxide was analyzed using a CC200/4 Nucleodex α-PM (Machery-Nagel). As eluent 60% methanol and 40% 6.2 mM TEAA in water was used at a flow rate of 0.7 ml×min^−1. 1,2-Dihydronaphthalene oxide, trans-β-Methylstyrene oxide, indene oxide, and methyl phenyl sulfoxide were extracted from the reaction buffer with one aliquot hexane und analyzed unsing normal phase HPLC with a CHIRACEL OB—H column and hexane:isopropanol 95:5 (9:1 for methyl phenyl sulfoxide) at a flow rate of 0.5 ml*min^−1 as mobile phase. As reference either authentical samples of racemic epoxides were used. (Table 4). […]

[2] = biological target: T2, Alkane Hydoxylase from P. Oleovorans (AlkB) (Ectopseudomonas oleovorans, UniProt P12691); test: Direct reduction of alkane hydroxylase AlkB by [Cp*Rh(bpy)(H2O)]2+, hydroxylation of 3-ethyl toluene; type: biochemical; settings: 200 μM [Cp*Rh(bpy)(H2O)]2+, 2 mM 3-ethyl toluene, AlkB crude extract, 30 °C, 20 minutes; average of 4 experiments
T2 construct: made in house; host or cells: E. coli
Experimental: In a typical experiment, 1 ml total volume of 200 μM [Cp*Rh(bpy)(H2O)]^2+ are incubated with 2 mM 3-ethyl toluene and 100 μl of a cell crude extract of recombinant E. coli overexpressing AlkB in a final volume of 1 ml 100 mM potassium phosphate buffer (pH 7.4) supplemented with 150 mM sodium formate and 1 mg/ml bovine serum albumin at 30° C. and vigorous shaking. After 20 minutes the reaction is stopped by addition of […] perchloric acid (10%). After centrifugation the supernatant is extracted with one aliquot of hexane. The organic phase is analyzed by normal phase HPLC (Nucleosil 250/3 100-5 C, mobile phase: hexane/isopropanol 95:5, flow rate=0.5 ml min^−1).

CytC = CytC (Equus caballus, UniProt P00004)
Experimental: On the other hand CytC is inactivated by hydrogen peroxide, which can be followed by the disappearing Soret-peak (heme absorbance at k=408 nm).
In a typical experiment […] CytC is incubated at 30° C. in the presence of 1 mM hydrogen peroxide. At intervals of 2 min the UV-spectrum (between 300 and 650 nm) is recorded (FIG. 18).
In identical experiments, the absorbance at 408 nm was followed over time.

[3] = biological target: T1, monooxygenase component of styrene monooxygenase (StyA); test: [Cp*Rh(bpy)(H2O)]2+ driven, StyA-catalyzed epoxidation / sulfoxidation; type: biochemical; settings: substrate 4 mM, reaction time 15 min, 37 °C, 0.2 mM [Cp*Rh(bpy)(H2O)]2+, 1.47 μM StyA

CytC, sequence (P00004 whole entry): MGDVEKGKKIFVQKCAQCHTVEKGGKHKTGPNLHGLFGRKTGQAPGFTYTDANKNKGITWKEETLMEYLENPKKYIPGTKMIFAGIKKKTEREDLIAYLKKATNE
T1 sequence (O50214 whole entry): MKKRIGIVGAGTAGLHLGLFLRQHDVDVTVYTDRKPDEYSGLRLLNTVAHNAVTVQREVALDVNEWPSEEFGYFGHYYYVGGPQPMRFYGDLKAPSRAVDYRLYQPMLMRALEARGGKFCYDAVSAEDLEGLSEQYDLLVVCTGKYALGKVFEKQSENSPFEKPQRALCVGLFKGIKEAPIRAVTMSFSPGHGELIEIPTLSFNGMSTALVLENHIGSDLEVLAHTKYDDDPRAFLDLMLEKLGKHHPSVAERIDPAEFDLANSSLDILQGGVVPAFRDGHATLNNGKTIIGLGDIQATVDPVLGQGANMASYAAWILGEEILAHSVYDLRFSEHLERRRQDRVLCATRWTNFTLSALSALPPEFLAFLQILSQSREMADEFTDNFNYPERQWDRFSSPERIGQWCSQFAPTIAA
T2 sequence (P12691 whole entry): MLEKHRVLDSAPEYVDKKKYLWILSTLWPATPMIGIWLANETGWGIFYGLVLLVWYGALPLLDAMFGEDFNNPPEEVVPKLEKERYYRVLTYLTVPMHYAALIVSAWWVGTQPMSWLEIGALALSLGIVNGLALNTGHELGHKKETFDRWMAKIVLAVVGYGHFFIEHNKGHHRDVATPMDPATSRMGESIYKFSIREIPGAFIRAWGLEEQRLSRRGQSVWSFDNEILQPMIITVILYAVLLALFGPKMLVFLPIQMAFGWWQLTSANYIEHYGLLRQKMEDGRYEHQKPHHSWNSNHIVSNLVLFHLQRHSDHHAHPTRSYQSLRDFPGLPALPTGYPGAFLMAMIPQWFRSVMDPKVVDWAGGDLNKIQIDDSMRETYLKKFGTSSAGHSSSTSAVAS

Compound C=Cc1ccc(C)cc1 [4-Methyl-styrene] has an Epoxides concentration [1] of 0.29 mM.

For Cc1cccc(CCO)c1 [3-methylphenethylalcohol], the 3-methylphenethylalcohol produced [2] was “about 0.015 mM”.

In the case of C=Cc1cccc(Cl)c1 [3-Chloro-styrene], the Epoxides concentration [1] is reported as 0.37 mM.

In the case of C/C=C/c1ccccc1 [Trans-β-Methylstyrene], the “ee-value of the epoxides” value [1] is reported as 97.6% and the Epoxides concentration [1] is reported as 0.28 mM.

For C1=Cc2ccccc2C1 [Indene], the “ee-value of the epoxides” value [1] was 97.9% and the Epoxides concentration [1] was 0.42 mM.

C=Cc1ccc(Cl)cc1 [4-Chloro styrene] was tested, and the Epoxides concentration [1] was “Positive^[c]”.

C1=Cc2ccccc2CC1 [1,2-Dihydronaphthalene] was tested, and the “ee-value of the epoxides” value [1] was 98.9% and the Epoxides concentration [1] was 0.23 mM.

C=Cc1ccc(Br)cc1 [4-Bromo styrene] was tested, and the Epoxides concentration [1] was “Positive^[c]”.

For C=Cc1ccc(F)cc1 [4-Fluoro styrene], the Epoxides concentration [1] was “Positive^[c]”.

In the case of CCSc1ccccc1 [Phenyl ethyl sulfide], the Epoxides concentration [1] is reported as “Positive^[c]”.

For C=Cc1ccc(OC)cc1 [4-Methoxy styrene], the Epoxides concentration [1] was “Positive^[c]”.

With OO [H2O2, hydrogen peroxide] the “CytC enzymatic activity after preincubation (sulfoxidation of thioanisol)” value (CytC; CytC 15 μM, 1 mM hydrogen peroxide, 10 minutes) was “almost complete loss of enzymatic activity”, the “dE (408 nm)/dt” value (CytC; [CytC] 5 μM, [H2O2] 5 mM) was -0.0116 min⁻¹ and the “dE (408 nm)/dt” value (CytC; [CytC] 5 μM, [H2O2] 10 mM) was -0.0231 min⁻¹. The “dE (408 nm)/dt” value (CytC; [CytC] 5 μM, [H2O2] 20 mM) was -0.0399 min⁻¹, the “dE (408 nm)/dt” value (CytC; [CytC] 7.5 μM, [H2O2] 10 mM) was -0.0281 min⁻¹ and the “dE (408 nm)/dt” value (CytC; [CytC] 10 μM, [H2O2] 5 mM) was -0.0234 min⁻¹. The “dE (408 nm)/dt” value (CytC; [CytC] 10 μM, [H2O2] 7.5 mM) was -0.0330 min⁻¹, the “dE (408 nm)/dt” value (CytC; [CytC] 10 μM, [H2O2] 10 mM) was -0.0438 min⁻¹ and the “dE (408 nm)/dt” value (CytC; [CytC] 10 μM, [H2O2] 15 mM) was -0.0637 min⁻¹. For the same compound, the “dE (408 nm)/dt” value (CytC; [CytC] 10 μM, [H2O2] 20 mM) was -0.0821 min⁻¹.

In the case of CSc1ccccc1 [Thioanisole], the “ee-value of the epoxides” value [1] is reported as 23.3% and the Epoxides concentration [1] is reported as 0.33 (Methyl mM.

For C=Cc1ccccc1 [Styrene], the Epoxides concentration ([3]; 20 μM FAD) was 0.33 mM and the “ee-value of the epoxides” value ([3]; (S)) was <98 (S)^[a] %.
